Measured values taken from ChEMBL document CHEMBL5126670, “Structure-Activity Relationships for the N-Me- Versus N-H-Amide Modification to Macrocyclic ent-Verticilide Antiarrhythmics” (ACS Med Chem Lett, 2022).
The source made the active and inactive calls. No cut-off for these calls is given here.

Each compound was assayed against Ryanodine receptor 2 (Mus musculus) (UniProt E9Q401) (assay: Inhibition of RyR2 in Casq2 gene knockout mouse cardiomyocytes assessed as reduction in calcium sparks frequency at 25 uM incubated for 15 mins by calcium sparks assay). Conditions: Cardiomyocyte.
Ryanodine receptor 2 (Mus musculus), sequence (E9Q401 whole entry): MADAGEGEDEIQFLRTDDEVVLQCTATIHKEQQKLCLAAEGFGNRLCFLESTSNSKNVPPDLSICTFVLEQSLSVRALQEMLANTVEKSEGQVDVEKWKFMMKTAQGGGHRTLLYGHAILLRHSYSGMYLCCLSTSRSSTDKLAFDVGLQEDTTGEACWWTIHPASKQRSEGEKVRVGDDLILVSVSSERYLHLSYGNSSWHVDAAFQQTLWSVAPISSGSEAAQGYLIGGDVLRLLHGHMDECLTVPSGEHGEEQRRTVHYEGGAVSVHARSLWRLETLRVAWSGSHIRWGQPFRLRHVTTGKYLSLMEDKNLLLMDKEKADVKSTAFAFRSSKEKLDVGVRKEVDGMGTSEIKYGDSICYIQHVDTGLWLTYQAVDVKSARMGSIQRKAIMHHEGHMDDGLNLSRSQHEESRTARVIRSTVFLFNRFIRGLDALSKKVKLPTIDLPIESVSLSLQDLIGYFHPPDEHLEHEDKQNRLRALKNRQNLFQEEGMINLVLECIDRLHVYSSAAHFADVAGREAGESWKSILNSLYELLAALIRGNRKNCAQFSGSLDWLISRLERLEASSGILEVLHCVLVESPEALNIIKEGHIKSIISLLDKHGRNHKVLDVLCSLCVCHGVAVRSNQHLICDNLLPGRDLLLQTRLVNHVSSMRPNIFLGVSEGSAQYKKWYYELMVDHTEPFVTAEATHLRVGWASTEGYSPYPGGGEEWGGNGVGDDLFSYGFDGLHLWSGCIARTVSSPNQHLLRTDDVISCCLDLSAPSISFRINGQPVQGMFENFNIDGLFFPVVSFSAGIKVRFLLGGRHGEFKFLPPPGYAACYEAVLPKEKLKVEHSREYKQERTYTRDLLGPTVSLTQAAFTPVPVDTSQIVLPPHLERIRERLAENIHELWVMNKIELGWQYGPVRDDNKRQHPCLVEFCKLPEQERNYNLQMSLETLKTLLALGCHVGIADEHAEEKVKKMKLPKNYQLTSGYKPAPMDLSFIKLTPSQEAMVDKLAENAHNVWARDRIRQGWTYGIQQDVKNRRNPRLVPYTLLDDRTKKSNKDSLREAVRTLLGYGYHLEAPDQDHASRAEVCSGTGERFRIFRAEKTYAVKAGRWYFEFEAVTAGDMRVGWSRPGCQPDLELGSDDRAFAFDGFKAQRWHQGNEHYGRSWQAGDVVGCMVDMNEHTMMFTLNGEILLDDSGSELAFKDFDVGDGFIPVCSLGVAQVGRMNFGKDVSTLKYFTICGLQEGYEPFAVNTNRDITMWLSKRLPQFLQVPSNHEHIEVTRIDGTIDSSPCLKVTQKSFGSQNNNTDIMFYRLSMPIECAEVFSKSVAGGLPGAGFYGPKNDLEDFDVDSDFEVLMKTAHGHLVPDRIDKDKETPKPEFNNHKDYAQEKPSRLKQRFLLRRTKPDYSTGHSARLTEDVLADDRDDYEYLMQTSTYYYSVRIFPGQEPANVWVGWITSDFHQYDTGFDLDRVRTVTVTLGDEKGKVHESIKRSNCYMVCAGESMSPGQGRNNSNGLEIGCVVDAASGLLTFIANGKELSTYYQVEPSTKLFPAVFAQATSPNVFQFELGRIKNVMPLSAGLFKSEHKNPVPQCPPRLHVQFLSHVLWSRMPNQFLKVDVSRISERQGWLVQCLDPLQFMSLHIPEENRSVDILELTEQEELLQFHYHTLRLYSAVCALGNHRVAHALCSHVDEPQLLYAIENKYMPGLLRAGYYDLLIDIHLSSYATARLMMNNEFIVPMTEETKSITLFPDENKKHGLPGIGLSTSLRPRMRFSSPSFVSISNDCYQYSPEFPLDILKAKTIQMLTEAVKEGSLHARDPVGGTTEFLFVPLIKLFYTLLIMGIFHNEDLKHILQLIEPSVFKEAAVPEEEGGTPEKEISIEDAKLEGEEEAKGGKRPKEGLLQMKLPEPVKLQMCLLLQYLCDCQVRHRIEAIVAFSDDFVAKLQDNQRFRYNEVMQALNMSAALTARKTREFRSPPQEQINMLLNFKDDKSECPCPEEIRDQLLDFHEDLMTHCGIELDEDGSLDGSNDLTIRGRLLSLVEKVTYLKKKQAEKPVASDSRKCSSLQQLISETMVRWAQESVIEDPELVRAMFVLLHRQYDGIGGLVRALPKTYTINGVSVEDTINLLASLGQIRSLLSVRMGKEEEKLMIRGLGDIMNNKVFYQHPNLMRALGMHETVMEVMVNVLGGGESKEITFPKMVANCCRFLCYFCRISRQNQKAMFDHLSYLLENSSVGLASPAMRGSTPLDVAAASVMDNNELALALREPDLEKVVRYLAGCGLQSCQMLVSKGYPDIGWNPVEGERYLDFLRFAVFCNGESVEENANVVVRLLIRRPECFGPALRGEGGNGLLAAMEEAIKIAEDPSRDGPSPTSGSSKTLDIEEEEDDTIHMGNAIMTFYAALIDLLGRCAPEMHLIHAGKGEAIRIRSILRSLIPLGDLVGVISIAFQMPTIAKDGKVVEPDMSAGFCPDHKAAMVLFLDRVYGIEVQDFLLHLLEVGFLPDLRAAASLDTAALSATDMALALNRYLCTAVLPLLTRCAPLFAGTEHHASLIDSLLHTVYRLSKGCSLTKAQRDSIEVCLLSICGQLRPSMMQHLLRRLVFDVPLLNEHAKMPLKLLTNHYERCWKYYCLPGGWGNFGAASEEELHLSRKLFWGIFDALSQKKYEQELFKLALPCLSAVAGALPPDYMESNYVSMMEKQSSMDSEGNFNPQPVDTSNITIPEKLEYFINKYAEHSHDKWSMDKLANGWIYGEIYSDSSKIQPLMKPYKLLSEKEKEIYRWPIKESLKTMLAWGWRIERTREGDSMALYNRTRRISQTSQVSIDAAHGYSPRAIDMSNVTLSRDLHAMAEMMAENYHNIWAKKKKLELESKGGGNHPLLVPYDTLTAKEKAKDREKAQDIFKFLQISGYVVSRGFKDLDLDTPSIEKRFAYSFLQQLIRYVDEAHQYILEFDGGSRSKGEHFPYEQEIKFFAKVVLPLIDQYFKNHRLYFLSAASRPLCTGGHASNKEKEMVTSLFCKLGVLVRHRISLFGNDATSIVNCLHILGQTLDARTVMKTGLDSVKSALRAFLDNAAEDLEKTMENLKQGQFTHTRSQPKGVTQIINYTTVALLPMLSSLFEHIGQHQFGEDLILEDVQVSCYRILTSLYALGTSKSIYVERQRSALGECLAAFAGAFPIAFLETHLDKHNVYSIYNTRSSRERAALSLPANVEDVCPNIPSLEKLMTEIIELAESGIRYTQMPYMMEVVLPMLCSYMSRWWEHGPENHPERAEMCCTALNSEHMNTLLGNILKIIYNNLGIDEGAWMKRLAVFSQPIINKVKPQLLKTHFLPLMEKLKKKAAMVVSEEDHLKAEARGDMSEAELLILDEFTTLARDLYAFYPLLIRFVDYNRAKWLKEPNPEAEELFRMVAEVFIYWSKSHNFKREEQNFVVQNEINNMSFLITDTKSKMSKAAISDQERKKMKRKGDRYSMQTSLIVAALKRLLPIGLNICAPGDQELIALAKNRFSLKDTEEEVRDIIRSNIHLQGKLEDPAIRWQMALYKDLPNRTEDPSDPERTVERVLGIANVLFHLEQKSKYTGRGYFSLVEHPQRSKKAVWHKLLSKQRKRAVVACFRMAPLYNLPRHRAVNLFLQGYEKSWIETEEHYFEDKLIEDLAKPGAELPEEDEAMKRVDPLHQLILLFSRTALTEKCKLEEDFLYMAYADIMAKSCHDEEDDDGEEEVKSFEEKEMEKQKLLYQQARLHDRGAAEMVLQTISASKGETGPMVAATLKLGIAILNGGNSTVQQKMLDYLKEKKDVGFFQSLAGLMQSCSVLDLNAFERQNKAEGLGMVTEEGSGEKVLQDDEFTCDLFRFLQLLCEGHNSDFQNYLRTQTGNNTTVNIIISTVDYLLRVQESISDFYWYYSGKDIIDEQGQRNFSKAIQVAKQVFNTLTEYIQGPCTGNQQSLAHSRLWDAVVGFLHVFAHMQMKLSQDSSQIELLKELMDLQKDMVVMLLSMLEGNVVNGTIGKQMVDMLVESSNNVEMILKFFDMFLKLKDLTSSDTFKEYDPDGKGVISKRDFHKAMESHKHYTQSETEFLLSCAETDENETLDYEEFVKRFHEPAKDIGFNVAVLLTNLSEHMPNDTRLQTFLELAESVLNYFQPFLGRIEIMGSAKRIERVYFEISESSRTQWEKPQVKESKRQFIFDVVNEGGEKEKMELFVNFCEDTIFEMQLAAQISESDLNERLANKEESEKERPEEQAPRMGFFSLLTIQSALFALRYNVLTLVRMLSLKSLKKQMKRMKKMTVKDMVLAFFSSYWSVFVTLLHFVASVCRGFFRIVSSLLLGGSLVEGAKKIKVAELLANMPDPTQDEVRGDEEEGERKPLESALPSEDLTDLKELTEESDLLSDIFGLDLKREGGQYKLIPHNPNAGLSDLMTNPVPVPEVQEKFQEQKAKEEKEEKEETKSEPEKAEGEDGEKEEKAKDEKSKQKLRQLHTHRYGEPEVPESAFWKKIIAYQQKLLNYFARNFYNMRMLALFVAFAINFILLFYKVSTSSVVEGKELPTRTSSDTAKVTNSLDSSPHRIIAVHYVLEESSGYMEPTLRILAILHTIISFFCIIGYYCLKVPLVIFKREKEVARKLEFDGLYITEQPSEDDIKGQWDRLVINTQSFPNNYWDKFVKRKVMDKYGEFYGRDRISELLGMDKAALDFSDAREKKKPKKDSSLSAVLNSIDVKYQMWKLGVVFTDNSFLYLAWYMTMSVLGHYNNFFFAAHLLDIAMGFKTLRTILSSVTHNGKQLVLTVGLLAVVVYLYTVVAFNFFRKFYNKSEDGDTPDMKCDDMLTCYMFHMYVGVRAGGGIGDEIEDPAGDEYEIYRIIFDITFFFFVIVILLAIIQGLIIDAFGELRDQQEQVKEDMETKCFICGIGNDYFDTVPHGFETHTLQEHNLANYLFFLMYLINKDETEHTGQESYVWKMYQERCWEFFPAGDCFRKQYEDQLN
Format: cell-based
For CCCCC[C@@H]1OC(=O)[C@@H](C)N(C)C(=O)[C@H](CCCCC)OC(=O)[C@@H](C)N(C)C(=O)[C@H](CCCCC)OC(=O)[C@@H](C)NC1=O, the inhibition was “Active”.
CCCCC[C@@H]1OC(=O)[C@@H](C)NC(=O)[C@H](CCCCC)OC(=O)[C@@H](C)NC(=O)[C@H](CCCCC)OC(=O)[C@@H](C)NC1=O was tested, and the inhibition was “Active”.
In the case of CCCCC[C@@H]1OC(=O)[C@@H](C)N(C)C(=O)[C@H](CCCCC)OC(=O)[C@@H](C)N(C)C(=O)[C@H](CCCCC)OC(=O)[C@@H](C)N(C)C1=O, the inhibition is reported as “Active”.
For CCCCC[C@@H]1OC(=O)[C@@H](C)N(C)C(=O)[C@H](CCCCC)OC(=O)[C@@H](C)NC(=O)[C@H](CCCCC)OC(=O)[C@@H](C)NC1=O, the inhibition was “Active”.
